Assay results published in the SangsterLogP compilation.

SMILES | logP
Cc1c2c(cc3c1OC(C)(C)CC3)C=CC(C)(C)O2 | 6.2
Cc1ccc2c(c1)OC(C)(C)C=C2 | 4.03
CC1(C)C=Cc2cc(Br)c3c(c2O1)CCC(C)(C)O3 | 6.33
CCc1cc2c(c3c1OC(C)(C)CC3)OC(C)(C)C=C2 | 6.97
CC1(C)C=Cc2c(c3c(c4c2OC(C)(C)CC4)OC(C)(C)CC3)O1 | 5.8
CCOc1cc2c(cc1Cl)C=CC(C)(C)O2 | 4.89
CC1(C)C=Cc2c(ccc3c2CCC(C)(C)O3)O1 | 4.01
COc1ccc2c(c1)SC(C)(C)C=C2 | 4.32
CC1(C)C=Cc2cc(C(C)(C)C)c3c(c2O1)CCC(C)(C)O3 | 8.17
CC1(C)C=Cc2cccc(Cl)c2O1 | 4.06
CC1(C)C=Cc2ccc(Cl)cc2O1 | 4.55
CC1(C)C=Cc2ccccc2O1 | 3.42
CCOc1cc2c(cc1Br)C=CC(C)(C)O2 | 5.15

Other lines, results leading:

logP | SMILES
3.36 | CCOc1cc2c(cc1OC)C=CC(C)(C)O2
4.86 | COCCOCCOCCOc1cc2c(c3c1OC(C)(C)CC3)OC(C)(C)CC2
3.46 | COc1ccc2c(c1)OC(C)(C)C=C2
7.67 | CC1(C)C=Cc2c3c(c4c(c2O1)CCC(C)(C)O4)OC(C)(C)CC3
4.79 | COc1cc2c(cc1OCC(F)(F)F)C=CC(C)(C)O2
4.47 | COc1c2c(cc3c1OC(C)(C)CC3)C=CC(C)(C)O2
2.77 | COc1cc2c(cc1OC)OC(C)(C)C=C2
6.14 | CC1(C)C=Cc2cc(Cl)c3c(c2O1)CCC(C)(C)O3
6.89 | CCc1c2c(cc3c1OC(C)(C)C=C3)C=CC(C)(C)O2
4.49 | COc1cc2c(cc1OCC(F)(F)F)OC(C)(C)C=C2
3.52 | COc1cc2c(cc1OC)SC(C)(C)C=C2
